Test results taken from patent US8618074B2, “GPCR enhanced neuroprotection to treat brain injury” (Board of Regents of the University of Texas System, priority 2007, dated 2013).
Each block holds one compound with its values, some of them ahead of it.

Tests used:
astrocytes [1] = assay: Astrocyte survival under t-buOOH oxidative stress in the absence of neurons; type: cell-based, mouse
Method: To determine whether P2Y-R enhanced mitochondrial metabolism in astrocytes affected neuronal resistance to oxidative stress, we prepared co-cultures of neurons and astrocytes using corning transwell-clear permeable supports, which physically separates the two cell-types by ˜1 mm (# 07-200-170, Fisher scientific). Primary cultures of astrocytes were directly prepared in transwell supports until they were ˜70% confluent. Mouse cortical neurons were then cultured onto glass bottom mattek plates and maintained in B-27/Neurobasal Medium to control glia contamination to less than 0.5% (Invitrogen). After four days, co-cultures were treated with t-buOOH (100 μM) for 4 hours with and without pre-stimulation of ATP (2 μM, 10 minutes). Cells were then stained with the DNA intercalating dye Hoechst 33342 (10 μg/ml, Molecular Probes, #H-3570) and calcein AM (2 μM, Molecular Probes, #C3100). […] We then tested the neuroprotective affects of isoform specific purinergic ligands 2-MeSADP(P2Y1-R) and UTP(P2Y2-R). FIG. 6A depicts histogram plots of the percentage of neurons alive when cocultured with young or old astrocytes. FIG. 6B depicts histogram plots of the percentage of neurons alive pretreated with either 2-MeSADP (2 μM) or UTP (50 μM) for 10 min. A ten-minute pre-treatment of astrocytes with either 2-MeSADP (2 μM), or UTP (50 μM) was equally protective against oxidative stress induced cell death. The % neurons alive after 4.5 hours of t-buOOH treatment was 51±4% (n=1664 neurons, pooled from 4 experiments) for untreated controls, 70±2% (n=2541 neurons, pooled from 4 experiments) for 2-MeSADP and 71±3% (n=1189 neurons, pooled from 4 experiments) for UTP treated co-cultures. […] The % astrocytes alive after 4.5 hours of t-buOOH treatment, in the absence of neurons, was 60±4% (n=294 cells) for control, 77±4% (n=294) for 2-MeSADP and 79±3% (n=333) for UTP treated astrocytes.
It should be noted that stimulation of neuroprotective response in astrocytes is not restricted to signaling through P2Y receptors. For example we have shown that administration of the membrane permeable IP3 analog, IP3BM, is capable of protecting astrocytes from oxidative damage. Thus, it appears possible that any stimulus capable of evoking IP3-mediated calcium release in astrocytes is equally suitable for application in the present treatment methods. To test this possibility, astrocyte cultures subjected to oxidative stress were treated with either 2-MeSADP, or the metabotropic glutamate receptor agonist (1 S, 3 R)-1-aminocyclopentane-1,3-dicarboxylic acid (ACPD), or were left untreated.
To directly examine the role of IP3 gated Ca^2+ release in P2Y-R enhanced astrocyte protection, we used a membrane permeant butyryloxymethyl ester of IP3 (IP3-BM). Cultures of astrocytes were exposed to IP3-BM and Ca^2+ levels were assessed using 2-photon imaging of Fura 2. Ca^2+ increases in response to IP3-BM application were easily detected, but they occurred over a much slower time course than those initiated by ATP treatment. This was not unexpected because of the slow process of IP3-BM movement across the lipid bilayer as well as the time needed to cleave the ester and accumulate IP3 in the cell. Because of the slower time course, we pretreated astrocytes for 20 minutes prior to exposing them to the oxidant stress t-BuOOH. […] The protective effect of IP3-BM treatment was blocked by the IP3R inhibitor, XeC. […]

astrocytes [2] = assay: Intracellular ATP determination (luciferin-luciferase); type: cell-based, mouse
Method: Intracellular ATP was measured using a luciferin-luciferase kit (Invitrogen, #22066). Plated astrocytes were trypsinized and washed 3× with PBS buffer (GIBCO #14190). An aliquot of cells was set aside to measure the cell density with a hemocytometer. The cells were then suspended in a lysate buffer (4 mM EDTA and 100 mM Tris, pH 7.75) and immediately heated to 100° C. for 5 minutes to minimize enzymatic changes in ATP levels. The supernatant was collected after a 10,000 g centrifugation for 1 minute and used with the luciferin/luciferase kit according to the manufacturer's instructions. Luminescence was measured with a Synergy™ HT Multi-Detection Microplate Reader (BioTek). ATP levels were normalized by cell density.
Our next approach to investigate the role of mitochondrial metabolism was to directly measure ATP levels in cultures astrocytes using a luciferin-luciferase assay (Invitrogen). Astrocytes were cultured as described above, trypsinized and washed with buffer. The cells were then suspended in a lysate buffer and immediately heated to 100° C. (5 min) to minimize enzymatic changes in ATP levels. After centrifugation, the ATP dependent luminescence of supernatant was measured with a microplate reader (Biotek). FIG. 5C depicts histograms of the direct measurement of intracellular ATP levels relative to untreated cells (control), P2Y-R stimulated (MeADP), then the same measurements in the presence of oligomycin (oligo) or ruthenium 360 (Ru360). We estimated that the resting intracellular ATP concentration in cultured astrocytes was 0.31±0.14 μM ATP/10^4 cells (n=3). […] Finally, we tested whether ruthenium 360 (Ru360; Calbiochem), a polycation that inhibits the electrogenic mitochondrial Ca^2+ uniporter, affected mitochondrial ATP production.

Mouse cortical neurons = assay: Neuronal survival in transwell co-culture with astrocytes under t-buOOH oxidative stress (Hoechst/calcein); type: cell-based; settings: co-cultures; 10 min pre-treatment 2-MeSADP 2 μM or UTP 50 μM; 4.5 hours of t-buOOH
Method: Primary cultures of astrocytes were prepared as previously published (Lin et al., 2005). C57BL/6 male mice were purchased from the National Institute of Aging and maintained in standard accredited housing conditions at the University of Texas Health Science Center Animal Facility. Animal protocols were approved by our Institutional Animal Care Use Committee. Astrocytes were cultured in DMEM F-12 media (Invitrogen, # 11039-021) supplemented with 2 mM glutamine, nonessential amino acids, 10% fetal calf serum, 100 U/ml penicillin/streptomycin (Cambrex BioScience Walkersville, #17-602E) and 1% fungizone (Invitrogen, #15290-018) at 37° C. in an atmosphere containing 5% CO2. The culture medium was changed every 3-5 days. Confluent cells were gently removed by a trypsin EDTA solution and re-plated on 35 mm glass bottom chambers (Bioptechs #04200415C) prior to imaging experiments 3-4 days later. Cells were maintained in plastic culture flasks until the final re-seeding of cells onto a glass bottom chamber and were passed up to 3 times for astrocyte only experiments. For co-culture experiments with neurons, primary astrocytes were plated directly onto corning transwell-clear permeable supports, which physically separates the two cell-types by ˜1 mm (# 07-200-170, Fisher scientific). Astrocytes were cultured in transwells until they were ˜70% confluent. Mouse cortical neurons (Cambrex Bio Science Walkersville Inc., # M-CX-300) were then cultured onto 6 well mat-tek glass bottom plates and maintained in Neurobasal Medium (Invitrogen, # 21103-049), 2 mM L-Glutamine (Cambrex BioScience Walkersville, #17-605E), 100 U/ml penicillin/streptomycin (Cambrex BioScience Walkersville, #17-602E) and B-27 with (Invitrogen, #17504-044) and without antioxidants (Invitrogen, #10889-038), which controls glia contamination to less than 0.5%. The transwell supports with cultured astrocytes were placed in the neuron seeded glass bottom chambers for four days before imaging and both cell types were then maintained in neuronal media. For neuron only experiments, the astrocytes on the transwell supports were removed prior to treatments and imaging.
Sensitivity of neurons to oxidative stress was assessed by treating cultures with 100 μM tert-butyl hydrogen peroxide (t-BuOOH, Sigma, #B-2633) for 3 hours. Neurons were then stained with Hoechst 33342 (10 μg/ml, Molecular Probes, #H-3570) to label all cell nuclei and calcein AM (2 μM, #C3100, Molecular Probes, #C3100). […] Calcein fluorescence is only observed in live cells that have maintained their plasma membrane integrity. Images were acquired on an inverted Nikon TE300 microscope with a Hamamatsu ORCAER camera and Open lab software (Improvision).
To determine whether P2Y-R enhanced mitochondrial metabolism in astrocytes affected neuronal resistance to oxidative stress, we prepared co-cultures of neurons and astrocytes using corning transwell-clear permeable supports, which physically separates the two cell-types by ˜1 mm (# 07-200-170, Fisher scientific). Primary cultures of astrocytes were directly prepared in transwell supports until they were ˜70% confluent. Mouse cortical neurons were then cultured onto glass bottom mattek plates and maintained in B-27/Neurobasal Medium to control glia contamination to less than 0.5% (Invitrogen). After four days, co-cultures were treated with t-buOOH (100 μM) for 4 hours with and without pre-stimulation of ATP (2 μM, 10 minutes). Cells were then stained with the DNA intercalating dye Hoechst 33342 (10 μg/ml, Molecular Probes, #H-3570) and calcein AM (2 μM, Molecular Probes, #C3100). […] We then tested the neuroprotective affects of isoform specific purinergic ligands 2-MeSADP(P2Y1-R) and UTP(P2Y2-R). FIG. 6A depicts histogram plots of the percentage of neurons alive when cocultured with young or old astrocytes. FIG. 6B depicts histogram plots of the percentage of neurons alive pretreated with either 2-MeSADP (2 μM) or UTP (50 μM) for 10 min. […]

Compound: N[C@@]1(C(=O)O)CC[C@@H](C(=O)O)C1 [ACPD, (1 S, 3 R)-1-aminocyclopentane-1,3-dicarboxylic acid]
% of astrocytes alive (astrocytes [1]; 10 minutes pretreatment, 4 hours of t-BuOOH, mean+SD): 66+9% | astrocyte resistance to oxidative stress (astrocytes [1]; astrocyte cultures subjected to oxidative stress, versus untreated): enhanced

effect on ability of 2-MeSADP to increase ATP levels (astrocytes [2]; Ru360 1 μM 30 min + 2-MeSADP): completely blocked | basal ATP levels, % of control values (astrocytes [2]; Ru360 1 μM, 30 min): 60.5%±10.5 % of control
Compound: ruthenium 360 [Ru360]

Compound: O=c1ccn([C@@H]2O[C@H](COP(=O)(O)OP(=O)(O)OP(=O)(O)O)[C@@H](O)[C@H]2O)c(=O)[nH]1 [UTP, uridine 5′-triphosphate]
% neurons alive (Mouse cortical neurons): 71±3% | % astrocytes alive (astrocytes [1]; absence of neurons, 4.5 hours of t-buOOH, 2-MeSADP or UTP): 79±3%
